Data: US20160279204A1, “PEPTIDES AND PHARMACEUTICAL COMPOSITIONS FOR USE IN THE TREATMENT BY NASAL ADMINISTRATION OF PATIENTS SUFFERING FROM ANXIETY AND SLEEP DISORDERS” (MAX-PLANCK-GESELLSCHAFT ZUR FÖRDERUNG DER WISSENSCHAFT E.V., priority 2011, published 2016)
“Also recorded” adds a separate entry of the source.

Experiments:
NPSR [1] = conditions: cited from earlier work
NPSR [2] = molecular target: T1, NPSR (Mus musculus, UniProt Q8BZP8); conditions: rodents, ICV injection, US 2010/0056455; cited from earlier work
T1 construct: host or cells: rodent brain in vivo
T1 sequence (Q8BZP8 1-371): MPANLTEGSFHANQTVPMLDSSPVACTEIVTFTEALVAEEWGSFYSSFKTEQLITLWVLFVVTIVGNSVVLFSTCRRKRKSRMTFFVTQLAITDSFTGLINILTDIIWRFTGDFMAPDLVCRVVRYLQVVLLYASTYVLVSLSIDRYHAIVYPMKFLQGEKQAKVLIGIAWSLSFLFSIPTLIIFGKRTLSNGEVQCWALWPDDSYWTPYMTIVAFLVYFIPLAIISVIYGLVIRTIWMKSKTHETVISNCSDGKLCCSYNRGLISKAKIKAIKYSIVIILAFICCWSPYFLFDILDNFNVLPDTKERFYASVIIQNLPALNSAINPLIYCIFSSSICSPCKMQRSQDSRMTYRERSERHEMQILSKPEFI

Bl6 and HAB mice = assay: Elevated plus maze (EPM) after intranasal NPS; type: in vivo, mouse
Description: (§1) Behavioural tests (open field, dark-light test and elevated plus maze (EPM)) following intranasal NPS application were performed sequentially. Each test lasted for 5 min with an inter-test interval of 5 min, as described previously (Bunck et al., 2009; Krömer et al., 2005). The animals' behaviour during testing was videotaped and relevant parameters were analysed with the tracking software ANY-maze version 4.30 (Stoelting, Wood Dale, Ill., USA). Native NPS (1 μg/μL) or vehicle (Ringer solution) were administered intranasally to the alert mouse as described above (total volume: 14 μL). Mice were tested 30 min and 4 hrs after intranasal administration of first drop. Animals were sacrificed 24 hrs after treatment and prefrontal cortex and bilateral hippocampi were prepared immediately and shock-frozen in methylbutane.
After having ascertained that nasally administered NPS reaches its target cells, anxiolytic effects of NPS were established for this transnasal delivery method. For this purpose, nasally 6.36 nmol NPS per mouse was administered to two mouse strains, Bl6 and HAB (high anxiety behaviour) mice. HAB animals, a mouse strain inbred for pathologically high anxiety, were chosen together with Bl6 mice to allow differentiation between the temporary condition of state anxiety and the general condition of trait anxiety (Bunck et al., 2009; Kromer et al., 2005). To accurately characterise the anxiety-relieving properties of NPS in these two mouse strains, three standardised behavioural assays measuring anxiolytic effects at two different time points after intranasal NPS administration were performed. In each test, the effects of intranasal NPS versus vehicle treatment on both anxiety- and locomotion-related indices were examined.

[3] = test system: GluR1, GluR2, Glt-1, synapsin; assay: Immunoblotting of prefrontal cortex and hippocampus lysates after intranasal NPS; type: in vivo, mouse; conditions: 24 hrs after intranasal NPS
Description: as §1
For immunoblotting, proteins were extracted from aforementioned two brain regions (prefrontal cortex and bilateral hippocampi). Quantitative blot analysis was performed using ImageJ software (http://rsbweb.nih.gov/ij/; Rasband, W. S., ImageJ, U.S. National Institutes of Health). Primary antibodies used: Glt-1, Glu-R1, Glu-R2 (all 1:100; all from Santa Cruz Biotechnology, Santa Cruz, Calif., USA), synapsin (1:2000; Synaptic Systems, Goettingen, Germany) and GAPDH (1:2000, Santa Cruz Biotechnology, Santa Cruz, Calif., USA). Secondary antibodies used: donkey anti-goat IgG-HRP (1:10000; Santa Cruz Biotechnology, Santa Cruz, Calif., USA), goat anti-rabbit IgG-HRP (1:7500, Sigma-Aldrich, St. Louis, Mo., USA) and goat anti-mouse IgG-HRP (1:25000, Sigma-Aldrich, St. Louis, Mo., USA).

[4] = test system: CA3-CA1 synapses of the VH; assay: Field potential recordings in VH slices after intranasal NPS; set-up: species or system mouse; conditions: for paired-pulse facilitation: interstimulus intervals 25, 50, 100, 200 ms
Description: Mice were then allowed to rest for 2 h before slice preparation and electrophysiological recording.
(§2) Brains were dissected and placed in ice-cold carbogenated ACSF. 350 μm horizontal slices containing the VH were prepared using a vibroslicer. Afterwards, the slices were incubated for 30 min at 34° C. and subsequently stored at room temperature. For experiments, slices were placed in a submerged recording chamber and continuously superfused with carbogenated ACSF at a flow rate of 3 mL/min. Square pulse electrical stimuli (50 μs pulse width) were delivered via a bipolar tungsten electrode (insulated to the tip, 50 μm pole diameter) that was positioned within the stratum radiatum of the CA1 region. All recordings were performed at room temperature, low-pass filtered at 1 kHz, and digitised at 5 kHz. Evoked field excitatory postsynaptic potentials (fEPSPs) were recorded using glass micro-electrodes (1 MΩ open-tip resistance), filled with ACSF and also positioned within the CA1 stratum radiatum. Stimulus intensities were adjusted in a manner to produce a fEPSP of ˜50% of that amplitude at which a population spike becomes clearly observable. Paired-pulse facilitation was measured at interstimulus intervals of 25, 50, 100, 200, and 400 ms and the paired-pulse ratio was calculated as fEPSP2 amplitude/fEPSP1 amplitude.

[5] = test system: CA3-CA1 synapses of the VH; assay: Field potential recordings, bath application of NPS to VH slices; set-up: species or system mouse; conditions: bath application of NPS 1 μM, VH slices from C57BL/6N mice
Description: as §2

[6] = test system: Cy3-NPS uptake in mouse brain; assay: Cy3-NPS uptake after ICV pre-injection of native NPS; type: in vivo; conditions: native NPS at 5 fold concentration, 10 min prior to ICV Cy3-NPS (0.2 nmol per mouse)
Description: The mice were sacrificed 30 min post-injection.
To clarify the mechanism of intracellular Cy3-NPS uptake, native, i.e. unlabeled, NPS at 5 fold concentration was injected unilaterally 10 min prior to ICV injection of Cy3-NPS (0.2 nmol per mouse). […] This points towards a receptor-mediated uptake mechanism, since, as shown for other neuropeptides (cf. Grady et al., 1996; Hubbard et al., 2009) pre-treatment with unlabeled agonists leads to receptor saturation, thereby antagonising the uptake of labelled agonist (here Cy3-NPS).

Substance: neuropeptide S (SFRNGVGSGVKKTSFRRAKQ; Neuropeptide S; UniProt P0C0P7 70-89, looked up) [NPS, peptide agonist of neuropeptide S receptor (NPSR); native NPS, rat, from Bachem]
- response of NPSR-KO mice to NPS treatment (NPSR [1]; NPSR-KO mice, Duangdao et al., 2009): resistant
- anxiolytic effects (NPSR [1]; rodents, intracerebral and ICV injection): strong anxiolytic effects
- locomotor activity and wakefulness (NPSR [2]): increased locomotor activity and wakefulness
- behavioural differences versus vehicle in EPM (Bl6 and HAB mice; Bl6 and HAB mice, intranasal 6.36 nmol per mouse, 30 min): no behavioural differences
- time on the open arms (Bl6 and HAB mice; Bl6 mice, intranasal, 4 hrs): significantly increased
- total number of entries (Bl6 and HAB mice; Bl6 mice, intranasal, 4 hrs): no difference
- any parameter tested in the EPM (Bl6 and HAB mice; HAB mice, intranasal, 4 hrs): no differences
- synapsin expression ([3]; Bl6 mice, hippocampus versus prefrontal cortex): significantly increased in the hippocampus only
- GluR1, GluR2 and Glt-1 expression ([3]; Bl6 mice, hippocampus): remained unaffected
- Glt-1 expression level ([3]; Bl6 mice, prefrontal cortex): significantly increased
- GluR1 expression level ([3]; Bl6 mice, prefrontal cortex): significantly increased
- GluR2 expression ([3]; Bl6 mice, prefrontal cortex): remained unchanged
- protein expression changes in the hippocampus ([3]; HAB mice, hippocampus): no corresponding changes
- Glt-1 levels ([3]; HAB mice, prefrontal cortex): remained unchanged
- GluR1 expression ([3]; HAB mice, prefrontal cortex): not affected
- GluR2 expression ([3]; HAB mice, prefrontal cortex): significantly increased
- magnitude of LTP induced by high-frequency stimulation ([4]; C57BL/6N mice): weakened; also recorded: decreased the magnitude of LTP
- input-output curve (fEPSP amplitudes) ([4]; C57BL/6N mice, approximately 3 h after treatment): shift of input-output curves towards bigger fEPSP amplitudes; also recorded: shift of the input-output curve towards bigger fEPSP amplitudes
- paired-pulse facilitation ([4]; C57BL/6N mice): weakened; also recorded: reduced paired-pulse facilitation
- input-output curve (fEPSP amplitudes) ([4]; HAB mice): increase; also recorded: shift of the input-output curve towards bigger fEPSP amplitudes
- magnitude of LTP ([4]; HAB mice): reduction; also recorded: decreased the magnitude of LTP
- paired-pulse facilitation ([4]; HAB mice): reduction; also recorded: reduced paired-pulse facilitation
- long-term potentiation (LTP) [5]: decreases
- paired-pulse facilitation [5]: decreases
- effect of pre-injection on Cy3-NPS uptake [6]: reduced Cy3-NPS uptake throughout the brain
